According to publication PMC5244392, “Interspecies cathelicidin comparison reveals divergence in antimicrobial activity, TLR modulation, chemokine induction and regulation of phagocytosis” (Scientific Reports, 2017):

Columns and labels:
[1] = system: methicillin resistant Staphylococcus aureus (MRSA) (WKZ-2, human clinical isolate); experiment: Bacterial growth delay (Bioscreen C), MRSA; type: cell-based; conditions: for Cmax, MRSA, DMEM / Summary class, antimicrobial activity S. aureus DMEM / Max: hours growth delay with 20 μM cathelicidin, MRSA, DMEM: DMEM + FCS; for Cmax, MRSA, DMEM / Cmax, MRSA, MHB: 1 × 10^6 CFU/ml, peptide 0.31-20 μM, 16 h, 37 °C, — = no Cmax reached up to 20 μM; for Cmax, MRSA, DMEM / Cmax, MRSA, MHB / Max: hours growth delay with 20 μM cathelicidin, MRSA, DMEM / Max: hours growth delay with 20 μM cathelicidin, MRSA, MHB: N = 4; for Summary class, antimicrobial activity S. aureus DMEM / Summary class, antimicrobial activity S. aureus MHB: MRSA, − is not defined in the key; for Max: hours growth delay with 20 μM cathelicidin, MRSA, DMEM / Max: hours growth delay with 20 μM cathelicidin, MRSA, MHB: 20 μM peptide, given if no Cmax was reached
Method: (§1) E. coli O78 (Zoetis Animal Health, Kalamazoo, MI, USA), E. coli ATCC 25922, Staphylococcus aureus ATCC 29213, and methicillin resistant Staphylococcus aureus (MRSA) (WKZ-2, human clinical isolate) were grown overnight from a glycerol stock in Mueller Hinton Broth (MHB) (Becton Dickinson, USA). Before use, bacteria were grown to mid-log phase in MHB for 2 hours at 37 °C, 200 RPM. Murine RAW264.7 macrophages (ATCC-TIB-71) were obtained from the American Type Culture Collection (ATCC, Manassas, VA, USA) and cultured in DMEM (41966-029; Thermo Fisher Scientific, Waltham, MA, USA) supplemented with 10% FCS (Bodinco B.V., Alkmaar, the Netherlands) (DMEM + FCS) at 37 °C, 5.0% CO2. Cells were seeded in 96-wells plates at 5 × 10^5 cells/ml or 12-wells plates at 2 × 10^5/ml for adherence overnight prior to stimulation.
(§2) Peptides (0.63 to 40 μM) and bacteria mid-log cultures (2 * 10^6 CFU/ml) were prepared in MHB or DMEM + FCS and mixed (100 μl peptide + 100 μl bacterial culture) in a Bioscreen C analyzer plate (Oy Growth Curves Ab Ltd, Helsingfors, Finland). Plates were placed in a Bioscreen C analyzer (Oy Growth Curves Ab Ltd) and bacteria were grown for 16 h at 37 °C with 200 RPM. The OD was measured every 15 minutes using a wideband filter (450–580 nm) to measure bacterial growth. The time needed grow above an OD of 0.6 was determined for all concentrations. Activity of peptides was expressed as the Cmax, the concentration of peptide required to delay the growth for 10 h compared to the control. Or, for peptides with low activity (no Cmax), activity was expressed as the hours of growth delay at 20 μM. Unlike the classic MIC and MBC determination used in microbiology, this method also enabled comparison of peptides with low antibacterial activity.
(§3) Twelve cathelicidins from 6 different species were selected for this study, namely: human LL-37, murine CRAMP, dog K9CATH, equine CATH (eCATH)-1, -2 and -3, chicken CATH (chCATH)-1, -2, and -3, porcine PMAP-23 and -36 and PR-39 (Table 1). Antimicrobial activity against E. coli and MRSA was directly compared under standardized conditions in MHB, a medium optimized for bacterial growth. Bacterial growth delay was defined as the delay in hours for peptide-treated bacteria to reach an OD of 0.6, compared to the non-treated control. Cmax is the minimal concentration needed to delay growth for a minimum of 10 hours compared to the non-treated control (Table 1 and Fig. 1A).
(§4) Figure 1 Antibacterial activity of cathelicidins. E. coli and MRSA (1 × 10^6 CFU/ml) of were grown in MHB or DMEM ± FCS for 16 hours under constant shaking (200 RPM). Every 15 minutes the OD was measured. Growth delay was defined as the time needed for peptide-treated bacteria to grow above an OD of 0.6 compared to the control bacteria (no peptide added) (A). Cathelicidins were tested in different concentrations (0.31 μM, 0.63 μM, 1.25 μM, 2.5 μM, 5 μM, 10 μM, and 20 μM) to determine the antimicrobial activity in MHB against E. coli (B) or MRSA (C) and in more physiological medium DMEM + FCS (D,E). Results are presented as average +/− SEM (N = 4).

E. coli O78 = experiment: Bacterial growth delay (Bioscreen C), E. coli; type: cell-based, Escherichia coli; conditions: for Max: hours growth delay with 20 μM cathelicidin, E. coli, DMEM / Delay of the growth of E. coli / Summary class, antimicrobial activity E. coli DMEM: DMEM + FCS; for Max: hours growth delay with 20 μM cathelicidin, E. coli, DMEM / Max: hours growth delay with 20 μM cathelicidin, E. coli, MHB: 20 μM peptide, given if no Cmax was reached; for Max: hours growth delay with 20 μM cathelicidin, E. coli, DMEM / Max: hours growth delay with 20 μM cathelicidin, E. coli, MHB / Cmax, E. coli, DMEM / Cmax: cathelicidin concentration resulting in a delay in bacterial growth with minimal 10 hours, E. coli, MHB: N = 4; for Max: hours growth delay with 20 μM cathelicidin, E. coli, MHB / Cmax: cathelicidin concentration resulting in a delay in bacterial growth with minimal 10 hours, E. coli, MHB: time to OD 0.6 vs control; for Summary class, antimicrobial activity E. coli MHB / Summary class, antimicrobial activity E. coli DMEM: − is not defined in the key; for Cmax, E. coli, DMEM: DMEM + FCS (10%); for Cmax, E. coli, DMEM / Cmax: cathelicidin concentration resulting in a delay in bacterial growth with minimal 10 hours, E. coli, MHB: 1 × 10^6 CFU/ml, peptide 0.31-20 μM, 16 h, 37 °C, — = no Cmax reached up to 20 μM; for Delay of the growth of E. coli: peptide concentration not given (0.31-20 μM tested); for Cmax: cathelicidin concentration resulting in a delay in bacterial growth with minimal 10 hours, E. coli, MHB: 200 RPM
Method: as §1, §2, §3, §4

Substance	Cmax, MRSA, DMEM [1]	Summary class, antimicrobial activity S. aureus DMEM [1]	Cmax, MRSA, MHB ([1]; MHB)	Summary class, antimicrobial activity S. aureus MHB ([1]; MHB)	Max: hours growth delay with 20 μM cathelicidin, E. coli, DMEM (E. coli O78)	Max: hours growth delay with 20 μM cathelicidin, E. coli, MHB (E. coli O78; MHB)	Summary class, antimicrobial activity E. coli MHB (E. coli O78; MHB)	Cmax, E. coli, DMEM (E. coli O78)	Delay of the growth of E. coli (E. coli O78)	Summary class, antimicrobial activity E. coli DMEM (E. coli O78)	Cmax: cathelicidin concentration resulting in a delay in bacterial growth with minimal 10 hours, E. coli, MHB (E. coli O78; MHB)	Max: hours growth delay with 20 μM cathelicidin, MRSA, DMEM [1]	Max: hours growth delay with 20 μM cathelicidin, MRSA, MHB ([1]; MHB)	Activity against E. coli in MHB, in words (E. coli O78; MHB, peptide up to 20 μM)	Activity against MRSA in MHB, in words ([1]; MHB, peptide up to 20 μM)
RIIDLLWRVRRPQKPKFVTVWVR [PMAP-23, porcine α-helical cathelicidin, 23 residues, charge +6]	10 µM	+++ (+++ = Cmax at ≤20 μM)	20 µM	+++ (+++ = Cmax at ≤20 μM)	3.5 h	9.5 h	++ (++ = >8 hours inhibition at 20 μM)								
Ac-GRFRRLRKKTRKRLKKIGKVLKWIPPIVGSIPLGCG [PMAP-36, porcine α-helical cathelicidin, N-acetylated, 36 residues, charge +13]	0.31 µM	+++ (+++ = Cmax at ≤20 μM)	10 µM	+++ (+++ = Cmax at ≤20 μM)			+++ (+++ = Cmax at ≤20 μM)	2.5 µM	at least 7 hours	+++ (+++ = Cmax at ≤20 μM)	5 µM				
RFGRFLRKIRRFRPKVTITIQGSARF-NH2 [chCATH-2, chicken CATH-2, C-terminal amide, 26 residues, charge +9]	0.31 µM	+++ (+++ = Cmax at ≤20 μM)	2.5 µM	+++ (+++ = Cmax at ≤20 μM)			+++ (+++ = Cmax at ≤20 μM)	10 µM	at least 7 hours	+++ (+++ = Cmax at ≤20 μM)	5 µM				
KRRHWFPLSFQEFLEQLRRFRDQLPFP [eCATH-2, equine CATH-2, 27 residues, charge +4]					2.0 h	9.0 h	++ (++ = >8 hours inhibition at 20 μM)					3.5 h	1.5 h		
RLKELITTGGQKIGEKIRRIGQRIKDFFKNLQPREEKS [Peptide K9CATH, dog cathelicidin, 38 residues, charge +6]		+ (+ = >4 hours inhibition at 20 μM)			1.5 h	3.0 h						4.5 h	0.5 h	no or very little activity	
RRRPRPPYLPRPRPPPFFPPRLPPRIPPGFPPRFPPRFP [PR-39, porcine proline-rich cathelicidin forming a polyproline helix, 39 residues, charge +10]	10 µM	+++ (+++ = Cmax at ≤20 μM)			7.0 h		+++ (+++ = Cmax at ≤20 μM)		at least 7 hours	+ (+ = >4 hours inhibition at 20 μM)	20 µM		0.5 h		no effect
RVKRFWPLVPVAINTVAAGINLYKAIRRK [chCATH-3, chicken CATH-3, 29 residues, charge +7]	0.31 µM	+++ (+++ = Cmax at ≤20 μM)	5 µM	+++ (+++ = Cmax at ≤20 μM)	5.5 h		+++ (+++ = Cmax at ≤20 μM)			+ (+ = >4 hours inhibition at 20 μM)	20 µM				
GLLRKGGEKIGEKLKKIGQKIKNFFQKLVPQPEQ [CRAMP, murine cathelicidin, 34 residues, charge +6]		+ (+ = >4 hours inhibition at 20 μM)			2.5 h	9.0 h	++ (++ = >8 hours inhibition at 20 μM)					6.5 h	0.5 h		
